Test results as given in ChEMBL document CHEMBL6087472, “Development and Discovery of a Selective Degrader of Casein Kinases 1 δ/ε” (J Med Chem, 2025).
Active and inactive are the calls of the source. The calls are words filed in the database; no cut-off is given here.

Legend:
Format in all cases: cell-based
[1] = molecular target: T1, von Hippel-Lindau disease tumor suppressor/Casein kinase I isoform epsilon (Homo sapiens) (UniProt P49674+P40337); assay: PROTAC activity at VHL/CK1 epsilon in human MDA-MB-231 cells assessed as induction of degradation of CK1 epsilon at 1 uM measured after 6 hrs
[2] = molecular target: T2, von Hippel-Lindau disease tumor suppressor/Casein kinase I isoform delta (Homo sapiens, UniProt P48730+P40337); assay: PROTAC activity at VHL/HiBit fused CK1 delta in human MV4-11 cells assessed as fold change at 0.63 uM measured after 6 hrs by Nano-Glo HiBit assay
[3] = molecular target: T1, von Hippel-Lindau disease tumor suppressor/Casein kinase I isoform epsilon (Homo sapiens); assay: PROTAC activity at VHL/CK1 epsilon in HEK293 cells assessed as induction of degradation of CK1 epsilon by measuring maximum efficacy at 5 to 10 uM measured after 6 hrs by Western blot analysis relative to control; details: dose 5-10 µM
[4] = molecular target: von Hippel-Lindau disease tumor suppressor/Casein kinase I isoform alpha (Homo sapiens) (UniProt P48729+P40337); assay: PROTAC activity at VHL/Hibit-fused CK1 alpha in human MV4-11 cells assessed as degradation of CK1-alpha incubated for 6 hrs by Nano-Glo HiBiT assay relative to control
[5] = molecular target: T2, von Hippel-Lindau disease tumor suppressor/Casein kinase I isoform delta; assay: PROTAC activity at VHL/CK1 delta in human MDA-MB-231 cells assessed as induction of degradation of CK1 delta by measuring maximum efficacy at 1 uM measured after 6 hrs relative to control

T1 sequence (P40337 whole entry, looked up, the tested form may be a part, canonical isoform): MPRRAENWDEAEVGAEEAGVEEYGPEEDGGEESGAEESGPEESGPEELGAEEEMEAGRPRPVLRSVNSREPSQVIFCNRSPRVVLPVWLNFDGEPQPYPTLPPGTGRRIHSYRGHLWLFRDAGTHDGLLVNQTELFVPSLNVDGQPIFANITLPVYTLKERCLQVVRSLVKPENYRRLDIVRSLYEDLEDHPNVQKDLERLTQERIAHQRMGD
T1 sequence (P49674 whole entry, looked up, the tested form may be a part, canonical isoform): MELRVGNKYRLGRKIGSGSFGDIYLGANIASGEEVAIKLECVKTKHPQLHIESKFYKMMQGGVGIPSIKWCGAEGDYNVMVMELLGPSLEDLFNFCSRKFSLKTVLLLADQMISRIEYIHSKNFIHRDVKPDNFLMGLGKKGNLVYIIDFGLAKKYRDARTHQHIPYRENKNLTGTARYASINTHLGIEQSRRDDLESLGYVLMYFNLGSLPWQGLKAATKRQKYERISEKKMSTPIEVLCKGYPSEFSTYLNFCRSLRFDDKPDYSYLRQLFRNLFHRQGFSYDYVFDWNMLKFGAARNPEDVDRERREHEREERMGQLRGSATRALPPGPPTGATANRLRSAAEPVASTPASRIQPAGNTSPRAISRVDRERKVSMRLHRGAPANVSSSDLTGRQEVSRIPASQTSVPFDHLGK
T2 sequence (P40337 whole entry, looked up, the tested form may be a part, canonical isoform): as the sequence (P40337 whole entry, looked up, the tested form may be a part, canonical isoform) above
T2 sequence (P48730 whole entry, looked up, the tested form may be a part, canonical isoform): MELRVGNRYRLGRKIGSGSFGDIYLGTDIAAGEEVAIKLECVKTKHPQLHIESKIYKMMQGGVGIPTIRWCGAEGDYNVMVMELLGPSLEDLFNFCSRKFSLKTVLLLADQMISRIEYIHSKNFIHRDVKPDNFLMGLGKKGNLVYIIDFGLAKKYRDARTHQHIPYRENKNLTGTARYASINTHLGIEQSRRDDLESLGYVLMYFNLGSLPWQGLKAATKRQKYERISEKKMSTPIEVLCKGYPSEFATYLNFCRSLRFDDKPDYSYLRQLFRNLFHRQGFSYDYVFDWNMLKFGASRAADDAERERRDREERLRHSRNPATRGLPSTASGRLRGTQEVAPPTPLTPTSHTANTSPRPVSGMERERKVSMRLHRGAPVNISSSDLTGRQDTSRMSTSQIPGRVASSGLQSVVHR
Chain of von Hippel-Lindau disease tumor suppressor/Casein kinase I isoform alpha (Homo sapiens) (P40337 whole entry, looked up, the tested form may be a part, canonical isoform): as the sequence (P40337 whole entry, looked up, the tested form may be a part, canonical isoform) above
Chain of von Hippel-Lindau disease tumor suppressor/Casein kinase I isoform alpha (Homo sapiens) (P48729 whole entry, looked up, the tested form may be a part, canonical isoform): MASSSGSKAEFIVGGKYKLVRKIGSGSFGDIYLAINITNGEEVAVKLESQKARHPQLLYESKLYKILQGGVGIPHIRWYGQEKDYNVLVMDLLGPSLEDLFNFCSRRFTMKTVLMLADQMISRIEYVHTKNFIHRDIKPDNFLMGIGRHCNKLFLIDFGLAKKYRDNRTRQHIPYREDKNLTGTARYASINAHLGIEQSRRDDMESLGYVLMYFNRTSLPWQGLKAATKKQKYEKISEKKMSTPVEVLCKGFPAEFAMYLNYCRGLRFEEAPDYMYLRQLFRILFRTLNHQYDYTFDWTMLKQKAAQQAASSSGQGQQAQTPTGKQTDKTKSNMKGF

Compound: Cc1ncsc1-c1ccc(CNC(=O)[C@H]2C[C@H](O)CN2C(=O)[C@H](NC(=O)CCCCCCC(=O)N2CCC(F)(Cn3cnc(-c4ccc(F)cn4)c3-c3ccnc4[nH]ccc34)CC2)C(C)(C)C)cc1
- Activity [1]: Active
- fold change (FC) [2]: 0.49
- Emax [3]: > 50%
- Emax [4]: 35.1%
- Emax [5]: 75%
